Laboratory results reported in article PMC7100991 (PLoS Pathogens, 2020).
pIC50: −log10 of the molar value.

Biological target: T1, Fusarium graminearum myosin I (FgMyoI) (Fusarium graminearum, UniProt I1RCT2)
T1 construct: gene FGRAMPH1_01T03465
Experiment: biochemical

CCOC(=O)/C(C#N)=C(\N)c1ccccc1 [phenamacril]
pIC50: 6.44
